According to article PMC8231556, “Inhibiting Endothelial Cell Function in Normal and Tumor Angiogenesis Using BMP Type I Receptor Macrocyclic Kinase Inhibitors” (Cancers, 2021):

Experiments:
Test in all cases: radiometric kinase profiling (33 PanQinase)
Type in all cases: biochemical
[1] = target: T1, IGF1R (Homo sapiens, UniProt P08069); settings: read-out: Inhibitory effect (%) IGF1R
T1 construct: purchased ProQinase (33PanQinase Activity Assay)
In short: (§1)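 Enzyme/substrate mixes were incubated with [γ-33P]-ATP and compound (added as a 0.1 μM solution in 10% DMSO) at 30 °C for 60 min, then stopped with H3PO4 and washed with NaCl. 33P incorporation was scintillation-counted, and residual activity (%) was normalized to untreated control and background.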

[2] = target: T2, MAP3K10 (Homo sapiens, UniProt Q02779); settings: read-out: Inhibitory effect (%) MAP3K10
T2 construct: purchased ProQinase (33PanQinase Activity Assay)
In short: as §1

[3] = target: T3, SGK3 (Homo sapiens, UniProt Q96BR1); settings: read-out: Inhibitory effect (%) SGK3
T3 construct: purchased ProQinase (33PanQinase Activity Assay)
T3 sequence (Q96BR1 1-496): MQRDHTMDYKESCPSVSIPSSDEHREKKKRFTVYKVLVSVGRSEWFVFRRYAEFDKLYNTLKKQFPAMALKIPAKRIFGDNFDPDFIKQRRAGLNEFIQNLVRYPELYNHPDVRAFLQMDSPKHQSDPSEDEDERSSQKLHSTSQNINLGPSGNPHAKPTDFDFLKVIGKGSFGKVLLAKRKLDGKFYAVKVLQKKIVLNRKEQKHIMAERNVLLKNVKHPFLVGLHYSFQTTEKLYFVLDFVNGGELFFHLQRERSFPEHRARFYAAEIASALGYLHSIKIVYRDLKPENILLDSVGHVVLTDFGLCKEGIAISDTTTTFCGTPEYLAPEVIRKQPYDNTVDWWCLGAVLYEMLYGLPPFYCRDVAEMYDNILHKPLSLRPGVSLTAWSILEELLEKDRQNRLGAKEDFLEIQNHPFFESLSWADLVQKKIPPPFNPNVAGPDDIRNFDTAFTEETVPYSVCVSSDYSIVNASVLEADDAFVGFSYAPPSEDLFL
In short: as §1

[4] = target: T4, EPHA5 (Homo sapiens, UniProt P54756); settings: read-out: Inhibitory effect (%) EPHA5
T4 construct: purchased ProQinase (33PanQinase Activity Assay)
In short: as §1

[5] = target: T5, NEK1 (Homo sapiens, UniProt Q96PY6); settings: read-out: Inhibitory effect (%) NEK1
T5 construct: purchased ProQinase (33PanQinase Activity Assay)
T5 sequence (Q96PY6 1-1258): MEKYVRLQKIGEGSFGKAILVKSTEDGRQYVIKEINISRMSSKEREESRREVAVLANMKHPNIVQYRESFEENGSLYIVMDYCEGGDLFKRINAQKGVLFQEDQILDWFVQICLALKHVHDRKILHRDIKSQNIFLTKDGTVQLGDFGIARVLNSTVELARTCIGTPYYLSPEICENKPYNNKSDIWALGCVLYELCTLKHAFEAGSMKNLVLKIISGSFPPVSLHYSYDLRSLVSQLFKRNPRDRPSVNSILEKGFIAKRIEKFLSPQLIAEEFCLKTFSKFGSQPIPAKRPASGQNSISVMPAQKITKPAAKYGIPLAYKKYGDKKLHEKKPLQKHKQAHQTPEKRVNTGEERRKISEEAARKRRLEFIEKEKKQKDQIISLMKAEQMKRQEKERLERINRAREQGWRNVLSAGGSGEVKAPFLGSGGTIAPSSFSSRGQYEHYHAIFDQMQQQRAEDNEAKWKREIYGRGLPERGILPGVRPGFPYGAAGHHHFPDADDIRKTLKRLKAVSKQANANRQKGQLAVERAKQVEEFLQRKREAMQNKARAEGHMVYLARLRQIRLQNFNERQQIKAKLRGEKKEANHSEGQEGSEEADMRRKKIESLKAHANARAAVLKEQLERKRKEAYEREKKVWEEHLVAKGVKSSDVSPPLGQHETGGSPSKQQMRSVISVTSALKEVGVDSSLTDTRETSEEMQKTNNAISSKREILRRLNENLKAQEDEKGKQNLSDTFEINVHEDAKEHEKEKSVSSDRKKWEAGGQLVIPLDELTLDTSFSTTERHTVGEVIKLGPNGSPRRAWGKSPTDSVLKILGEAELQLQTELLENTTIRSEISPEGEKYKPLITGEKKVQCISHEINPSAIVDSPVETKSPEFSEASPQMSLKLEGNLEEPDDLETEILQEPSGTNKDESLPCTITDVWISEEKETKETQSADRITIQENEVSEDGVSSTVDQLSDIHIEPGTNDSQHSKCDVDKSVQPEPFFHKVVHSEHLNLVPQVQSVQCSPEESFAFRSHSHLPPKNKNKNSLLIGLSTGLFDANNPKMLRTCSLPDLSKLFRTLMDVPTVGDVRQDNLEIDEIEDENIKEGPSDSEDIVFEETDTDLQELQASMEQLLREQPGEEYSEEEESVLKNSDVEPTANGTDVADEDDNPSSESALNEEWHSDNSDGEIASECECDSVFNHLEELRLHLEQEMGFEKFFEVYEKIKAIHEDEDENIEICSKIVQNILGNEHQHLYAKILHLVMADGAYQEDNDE
In short: as §1

[6] = target: T6, CDK1_cyclinA2 (Homo sapiens, UniProt P06493); settings: read-out: Inhibitory effect (%) CDK1_cyclinA2
T6 construct: purchased Proqinase, Germany
In short: as §1

T2 sequence (Q02779 whole entry): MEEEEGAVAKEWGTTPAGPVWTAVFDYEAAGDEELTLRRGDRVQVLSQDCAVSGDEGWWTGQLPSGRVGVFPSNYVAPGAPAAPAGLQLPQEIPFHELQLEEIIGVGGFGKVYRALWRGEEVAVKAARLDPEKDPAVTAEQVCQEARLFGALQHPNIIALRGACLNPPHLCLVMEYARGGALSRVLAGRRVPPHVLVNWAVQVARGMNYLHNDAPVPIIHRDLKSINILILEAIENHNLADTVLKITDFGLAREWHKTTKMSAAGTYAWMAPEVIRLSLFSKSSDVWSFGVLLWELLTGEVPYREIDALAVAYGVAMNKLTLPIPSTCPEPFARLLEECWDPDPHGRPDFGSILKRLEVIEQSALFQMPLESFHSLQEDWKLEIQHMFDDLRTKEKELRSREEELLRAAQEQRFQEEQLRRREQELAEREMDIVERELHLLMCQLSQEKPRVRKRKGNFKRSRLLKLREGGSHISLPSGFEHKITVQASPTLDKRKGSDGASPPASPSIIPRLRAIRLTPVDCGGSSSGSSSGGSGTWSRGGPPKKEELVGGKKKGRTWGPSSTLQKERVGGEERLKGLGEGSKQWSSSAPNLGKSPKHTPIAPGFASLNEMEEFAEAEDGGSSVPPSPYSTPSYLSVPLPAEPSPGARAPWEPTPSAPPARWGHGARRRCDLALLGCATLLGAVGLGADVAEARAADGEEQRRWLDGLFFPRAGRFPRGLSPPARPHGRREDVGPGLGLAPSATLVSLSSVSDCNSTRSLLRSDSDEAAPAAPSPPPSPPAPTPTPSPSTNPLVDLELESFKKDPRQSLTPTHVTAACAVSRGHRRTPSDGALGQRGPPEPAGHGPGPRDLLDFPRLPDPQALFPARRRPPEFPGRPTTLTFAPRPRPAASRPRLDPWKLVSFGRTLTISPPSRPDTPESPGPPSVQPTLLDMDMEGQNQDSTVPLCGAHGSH
T6 sequence (P06493 whole entry): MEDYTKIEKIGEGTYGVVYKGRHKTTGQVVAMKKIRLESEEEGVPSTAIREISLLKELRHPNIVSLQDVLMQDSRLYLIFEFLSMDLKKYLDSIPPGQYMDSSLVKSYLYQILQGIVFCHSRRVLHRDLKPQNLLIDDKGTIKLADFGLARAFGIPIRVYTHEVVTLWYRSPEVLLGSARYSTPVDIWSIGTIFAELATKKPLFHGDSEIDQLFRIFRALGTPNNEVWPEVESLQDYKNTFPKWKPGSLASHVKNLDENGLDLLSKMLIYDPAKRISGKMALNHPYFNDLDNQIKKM
T6 sequence (P20248 whole entry partner): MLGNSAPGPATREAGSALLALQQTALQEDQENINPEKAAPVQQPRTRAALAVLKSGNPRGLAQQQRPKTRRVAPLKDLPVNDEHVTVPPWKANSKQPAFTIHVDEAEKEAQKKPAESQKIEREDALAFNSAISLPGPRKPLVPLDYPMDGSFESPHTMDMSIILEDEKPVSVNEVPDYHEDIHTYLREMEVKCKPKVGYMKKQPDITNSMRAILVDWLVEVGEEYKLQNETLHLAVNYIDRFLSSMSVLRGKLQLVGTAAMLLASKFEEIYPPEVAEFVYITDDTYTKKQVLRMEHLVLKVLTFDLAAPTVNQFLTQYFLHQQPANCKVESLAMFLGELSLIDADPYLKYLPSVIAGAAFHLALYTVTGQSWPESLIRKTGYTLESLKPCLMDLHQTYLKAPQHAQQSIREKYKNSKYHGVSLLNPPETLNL
T1 sequence (P08069 31-1367): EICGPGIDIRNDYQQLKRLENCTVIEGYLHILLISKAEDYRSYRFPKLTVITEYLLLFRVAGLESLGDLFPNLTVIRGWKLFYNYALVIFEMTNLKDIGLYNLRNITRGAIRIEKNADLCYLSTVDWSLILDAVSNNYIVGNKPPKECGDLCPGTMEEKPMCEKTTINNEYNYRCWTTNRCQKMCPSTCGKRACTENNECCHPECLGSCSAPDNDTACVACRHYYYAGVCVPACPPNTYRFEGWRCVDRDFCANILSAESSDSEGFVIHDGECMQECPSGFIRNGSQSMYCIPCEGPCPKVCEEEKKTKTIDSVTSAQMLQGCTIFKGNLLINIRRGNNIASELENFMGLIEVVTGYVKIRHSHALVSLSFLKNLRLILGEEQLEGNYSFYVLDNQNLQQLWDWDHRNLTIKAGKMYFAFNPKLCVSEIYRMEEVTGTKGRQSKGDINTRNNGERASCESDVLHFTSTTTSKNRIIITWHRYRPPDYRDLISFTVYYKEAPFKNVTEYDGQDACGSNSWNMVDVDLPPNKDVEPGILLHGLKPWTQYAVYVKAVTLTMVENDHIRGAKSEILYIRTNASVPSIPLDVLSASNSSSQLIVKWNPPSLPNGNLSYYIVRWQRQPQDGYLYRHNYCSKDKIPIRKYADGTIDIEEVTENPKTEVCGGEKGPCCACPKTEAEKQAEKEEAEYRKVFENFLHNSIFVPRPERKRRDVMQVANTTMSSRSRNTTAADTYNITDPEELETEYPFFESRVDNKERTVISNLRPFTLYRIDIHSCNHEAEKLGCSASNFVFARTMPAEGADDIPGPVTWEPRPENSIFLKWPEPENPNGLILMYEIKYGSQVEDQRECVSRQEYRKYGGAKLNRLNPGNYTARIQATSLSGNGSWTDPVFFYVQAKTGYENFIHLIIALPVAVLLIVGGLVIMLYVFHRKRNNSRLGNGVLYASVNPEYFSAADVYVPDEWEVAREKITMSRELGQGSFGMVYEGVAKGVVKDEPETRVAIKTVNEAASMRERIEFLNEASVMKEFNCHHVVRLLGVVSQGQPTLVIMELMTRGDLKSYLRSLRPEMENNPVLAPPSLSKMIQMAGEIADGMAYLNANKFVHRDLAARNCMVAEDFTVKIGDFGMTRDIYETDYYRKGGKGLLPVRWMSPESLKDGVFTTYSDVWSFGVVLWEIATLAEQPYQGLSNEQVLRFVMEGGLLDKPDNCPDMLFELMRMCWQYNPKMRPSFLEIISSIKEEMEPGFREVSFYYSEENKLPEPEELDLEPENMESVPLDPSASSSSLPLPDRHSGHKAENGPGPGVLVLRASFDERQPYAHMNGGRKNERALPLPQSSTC
T4 sequence (P54756 25-1037): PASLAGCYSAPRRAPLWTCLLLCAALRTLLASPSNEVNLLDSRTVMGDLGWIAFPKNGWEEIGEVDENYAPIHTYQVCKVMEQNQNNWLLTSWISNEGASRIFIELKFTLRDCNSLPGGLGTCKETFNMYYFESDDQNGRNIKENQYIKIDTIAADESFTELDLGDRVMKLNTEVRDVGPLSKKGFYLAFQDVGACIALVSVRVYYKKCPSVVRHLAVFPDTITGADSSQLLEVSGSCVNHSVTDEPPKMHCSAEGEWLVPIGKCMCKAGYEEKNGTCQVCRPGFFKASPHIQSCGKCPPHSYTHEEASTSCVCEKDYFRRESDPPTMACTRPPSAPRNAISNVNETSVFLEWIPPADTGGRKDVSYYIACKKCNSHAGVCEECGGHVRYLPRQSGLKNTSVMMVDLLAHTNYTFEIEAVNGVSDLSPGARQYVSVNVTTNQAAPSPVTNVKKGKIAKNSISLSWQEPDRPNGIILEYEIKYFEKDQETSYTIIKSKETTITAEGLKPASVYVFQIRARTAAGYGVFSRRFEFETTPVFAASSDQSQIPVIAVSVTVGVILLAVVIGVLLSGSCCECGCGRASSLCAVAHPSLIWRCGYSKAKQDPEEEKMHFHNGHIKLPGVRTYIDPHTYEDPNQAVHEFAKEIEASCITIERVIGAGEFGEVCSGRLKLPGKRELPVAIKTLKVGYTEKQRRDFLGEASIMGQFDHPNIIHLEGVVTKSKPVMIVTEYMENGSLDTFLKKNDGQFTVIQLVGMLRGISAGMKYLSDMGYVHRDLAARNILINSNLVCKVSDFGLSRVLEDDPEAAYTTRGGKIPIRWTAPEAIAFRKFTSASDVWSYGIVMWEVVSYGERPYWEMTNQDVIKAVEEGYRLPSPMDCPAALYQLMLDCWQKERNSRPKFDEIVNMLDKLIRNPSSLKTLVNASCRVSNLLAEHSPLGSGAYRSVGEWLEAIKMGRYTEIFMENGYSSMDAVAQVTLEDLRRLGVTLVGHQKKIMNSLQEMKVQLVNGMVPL

SMILES | inhibition at 0.1 µM [1] | inhibition at 0.1 µM [2] | inhibition at 0.1 µM [3] | inhibition at 0.1 µM [4] | inhibition at 0.1 µM [5] | inhibition at 0.1 µM [6]
CN1CCC(=O)NCCNc2ccn3ncc(c3n2)-c2cccc(c2)C1 [OD29] | 13.9% | 1.57% | -21.9% | 14.8% | 12.6% | 23.7%
CN1CCc2cccc(c2)Nc2nccc(n2)N2CCCc3cc(ccc32)C1 [OD16] | -39.5% | 1.85% | 2.44% | -65.7% | -6.3% | -8.88%
c1ccc2c(-c3cnn4cc(-c5ccc(N6CCNCC6)cc5)cnc34)ccnc2c1 [LDN-193189, reference compound] | 8.78% | -26.4% | -26.9% | -0.32% | -11.9% | -2.18%
